Experiment [1] deals with S. aureus ATCC 10390. The experiment can be described thus: Kirby-Bauer disk diffusion assay on compound spots from cleaved macroarray. The format is cell-based, Staphylococcus aureus. The conditions noted are these: loadings 30 μg/spot, 18 h incubation. As for the experimental part: While the heterocyclic libraries were being synthesized, the chalcone macroarrays were analyzed using various direct assay techniques such as the Kirby-Bauer disk diffusion assay (FIG. 2E). Bauer, A. W.; Kirby, […].; Turck, M. Technical Bulletin of the Registry of Medical Technologists 1966, 36, 49-52. For this assay, the macroarray members are punched out from the membrane, cleaved from the support with TFA vapor, neutralized with ammonia vapor, and then placed on an agar bed inoculated with S. aureus. After incubating overnight, different diameters of zones of inhibition are measured as a factor of potency as well as solubility in the medium. Ammonia vapor neutralization was key in the disk diffusion assay, otherwise residual TFA vapor created a false positive signature. However, in this method, macroarrays have to be made in triplicate one for a replicate and one for compound characterization. We first evaluated test chalcone macroarrays (3) in antibacterial assays against S. aureus. Because the macroarrays were prepared on cellulose filter paper, we had convenient access to the compounds in disk form for standard disk diffusion assays. Compound spots were punched out of the macroarrays, subjected to vapor phase cleavage with acid (TFA), and neutralized (NH3) to afford disks containing ca. 30 μg of adsorbed compound [8]. These disks were manually placed on lawns of S. aureus, and zones of inhibition were measured after an 18 h incubation period. […] However, this antibacterial assay format had drawbacks: (1) the entire sample of compound was consumed during the assay, and thus replicate arrays needed to be synthesized to confirm activity, and (2) manipulating large numbers of compound disks was relatively labor intensive. Compound spots were cleaved with TFA and neutralized with NH3 as described herein. […] Compound spots were placed onto the agar, the plate was incubated at 37° C. for 18 h, and the diameters of the zones of inhibition were measured. […] Compound spots were subjected to the TFA cleavage conditions described above. The spots were next subjected to NH3 vapor to neutralize any remaining TFA. […] Vials containing the spots (or intact macroarrays) were placed inside a small evaporating dish, and this was placed into the NH4OH solution. The Pyrex dish was covered, and NH3 vapor was allowed to slowly diffuse into the vials. After 1 h, the vials were removed from the NH3 chamber, and the spots were allowed to stand open in a fume hood for at least 15 min to vent prior to analysis in the following assays. This afforded dry, paper disks containing adsorbed compound. […] The plates were removed, and the diameters of the zones of inhibition were measured in mm using a ruler (see FIG. 1A).

Experiment [2] has as its system S. aureus ATCC 10390. Description: Estimated MIC, solution-phase microdilution absorbance assay with crude macroarray spot stock solutions. The format is cell-based, Staphylococcus aureus. The settings on record: for MIC: Staphylococcus aureus, ATCC10390, 12 h. The procedure: Spots from a new 69 member chalcone macroarray as well as the three heterocyclic macroarrays prepared earlier were punched out, cleaved, and eluted with acetonitrile. The resulting solutions were concentrated to a residue that was taken up in DMSO to form 2 mM stock solutions.
From the stock solutions, microdilution assays in a 96 well plate starting at 50 μM were performed in quadruplicate. Each well contained 5 μL of the stock solution as well as 195 μL of a S. aureus culture. The turbidity of each well was measured after incubating 12 hours using a standard plate reader. Active compounds can be further diluted and the assay repeated.
To acquire more quantitative antibacterial activity data about our compounds and verify our on-support assay results, we performed solution-phase absorbance assays that provided estimates of the minimum inhibitory concentration (MIC) of each macroarray member against S. aureus. Stock solutions (ca. 2 mM) were generated by cleaving and eluting 198 individual compounds from chalcone (3) and heterocyclic macroarrays (5, 7, and 8). […] The good overall purities of the crude macroarray compounds allowed for reasonable estimations of MICs.
(§1) For estimated MIC determination, DMSO was added to the dried compound residue obtained from a single spot to afford ca. 100 μL of a 2 mM stock solution. Aliquots (5 μL) of these solutions were added to a 96-well plate, followed by 195 μL of diluted S. aureus 10390 (10^6 CFUs/mL) to yield ca. 50 μM final concentrations. The plates were swirled for 1 h to ensure compound dissolution, incubated for 12 h at 37° C., and the absorbance at 595 nm was recorded using a plate reader. […] Actual MIC values were determined for lead compounds resynthesized in solution using an analogous procedure with solutions of known concentration (see).
Preparation of spot samples and controls. An aliquot of DMSO (ca. 100 μL depending on the loading of the parent hydroxyacetophenone) was added to the dried compound residue obtained after TFA cleavage and elution from a single spot. This afforded a 2.0 mM “spot stock” solution for each spot. A small aliquot of each “spot stock” solution was saved for subsequent LC-MS analysis.
For estimated MIC screens, 5.0 μL portions of the “spot stock” solutions were added to the appropriate wells in a sterile, polystyrene 96-well plate to yield ca. 50 μM solutions (dependent on the initial loading of hydroxyacetopheneone and compound purity). To the positive and negative control wells, 5.0 μL of DMSO were added (positive controls contained bacteria but no compound, while negative controls had neither compound nor bacteria). All estimated MIC assays were performed in quadruplicate. Note: the MIC value is defined as the lowest concentration where no bacterial growth occurs.
Representative estimated MIC assay procedure. This assay procedure is based in part on the method reported by Strøm et al.^xiii A 400 μL portion of overnight S. aureus 10390 culture was diluted with 100 mL of sterile LB broth to give ca. 10^6 CFUs per mL. Aliquots (195 μL) of this solution were added to all of the wells in a sterile 96-well plate (except for the negative control wells; 195 μL of sterile LB broth were added to these wells). The plates were placed on an orbital shaker table and gently swirled for 1 h to ensure compound dissolution, and then incubated (without shaking) for 12 h at 37° C. The absorbance at 595 nm was recorded using a plate reader.
The original “spot stock” solutions of these compounds were diluted with DMSO to give ca. 25 and 13 μM final concentrations and tested for inhibitory activities using the procedure described above.

For experiment [3], the system named is S. aureus ATCC 10390. The experiment can be described thus: MIC determination with authentic compounds resynthesized in solution. In kind it is cell-based, Staphylococcus aureus. The settings on record: Staphylococcus aureus, ATCC10390. The procedure:
as §1
(§2) Dose response growth inhibition curves were determined for each active compound (resynthesized in solution) against S. aureus 10390 (SA) and methicillin-resistant S. aureus 33591 (MRSA). […] MIC assays were performed in quadruplicate.

In experiment [4] the test system is Methicillin-resistant S. aureus ATCC 33591 (MRSA). Described as above. The settings on record: Staphylococcus aureus; Table 3; authentic sample, only trans isomers of chalcones; error reflects step size in the serial dilutions. In kind it is cell-based. The procedure:
as §1, §2

Experiment [5] has as its system B. subtilis subsp. spizizenii ATCC 6633. Description: MIC determination, species selectivity. In kind it is cell-based. The conditions noted are these: Bacillus subtilis, ATCC6633; authentic sample, only trans isomers of chalcones; error reflects step size. As for the experimental part:
(§3) Each compound from Table 3 was tested for inhibitory activity at 2.5, 5, 7.5, 10, 15, 20, 25, and 30 μM in the susceptible overlaid strains: B. subtilis ATCC 6633, S. epidermidis ATCC 12228, and K. pneumoniae ATCC 4352. MIC assays were run in quadruplicate as described above (with shaking).

For the next experiment, the system named is K. pneumoniae ATCC 4352. The experiment can be described thus: MIC determination, species selectivity. The format is cell-based. The conditions noted are these: Klebsiella pneumoniae, ATCC4352; authentic sample, only trans isomers of chalcones; error reflects step size. As for the experimental part: as §3
Experiment [6] concerns S. epidermidis ATCC 12228. The experiment can be described thus: MIC determination, species selectivity. The format is cell-based. The settings on record: Staphylococcus epidermidis, ATCC12228; authentic sample, only trans isomers of chalcones; error reflects step size. The procedure:
as §3

Another experiment relates to K. pneumoniae. The experiment can be described thus: Agar overlay TTC assay, compound overlays. In kind it is cell-based, Klebsiella pneumoniae. The settings on record: 30 nanomole aliquots of purified compound on filter paper.
Experiment [7] concerns S. aureus ATCC 10390. The experiment can be described thus: Agar overlay TTC assay. The format is cell-based, Staphylococcus aureus. The settings on record: methicillin susceptibility disk 10 μg, agar overlay TTC assay, 18 h. An excerpt: To take advantage of the spatially-addressed nature of the macroarray format, an agar overlay assay was employed that utilizes TTC (triphenyl tetrazolium chloride) as a visualization agent (FIG. 2[…].; Lu, A. T.; Solas, D. W.; Gore, […].; Coffin, […].; Wang, […].; Look, G. C.; Campbell, […]. Antimicrob. Agents Chemother. 1998, 1447-1453. Unfortunately, during macroarray synthesis the planarity of the support is not fully maintained, and small wrinkles develop in this particular assay. This problem was solved by using an adaptation of the common Western Blot technique to copy the macroarray members from the support to fresh wrinkle-free sheets while maintaining the spatially-addressed nature. This transfer can be completed in 90 seconds and four copies can be made at a time, however to date, it is applicable only for smaller macroarrays (6 cm×6 cm, 16 spots). The full macroarray was easily divided into these dimensions. The copies allowed for replicates to be made, and the original, which cannot be used in the assay, is used to validate the compounds by LCMS. As an added feature, the sensitivity of the assay was tuned by simply changing the amount of agar applied to the array. The copies generated in the assay can also be easily used to screened against multiple organisms. […] This assay format also took advantage of the spatially addressed nature of the arrays (FIG. 2C). […]

[8] abbreviates: Table 2, serial dilution of stock solutions obtained by SPOT-synthesis, read-out: estimated MIC range.
[9] abbreviates: Table 3, serial dilution of spot stock solutions of crude macroarray compounds, read-out: S. aureus Estimated MIC range.
[10] abbreviates: Table 2, authentic sample synthesized according to standard techniques, read-out: observed MIC.
The mark [11] stands for this setting: Table 3, authentic sample, only trans isomers of chalcones, error reflects step size in the serial dilutions, read-out: S. aureus MIC.

Values after ≈ are worked out from the molar mass of the structure shown.

Usually MIC stands for the lowest concentration that inhibits growth of the organism.

In the experiment on S. aureus ATCC 10390 [1], `O=C(/C=C/c1cccc(Cl)c1Cl)c1cccc(O)c1` [Compound 4Bl, 2,3-dichloro-3′-hydroxychalcone] yielded a Zones of inhibition of 19 mm. Besides, the MIC in the experiment with S. aureus ATCC 10390 [2] (setting [8]) is 12.5 to 25 µM (≈ 3.66 to 7.33 µg/mL); in the experiment with S. aureus ATCC 10390 [2] (setting [9]), 12.5 to 25 µM (≈ 3.66 to 7.33 µg/mL); in the experiment on S. aureus ATCC 10390 [3] (setting [10]) it was 13.8 ± 1.2 µM (≈ 4.05 µg/mL); in the experiment on S. aureus ATCC 10390 [3] (setting [11]), 15 ± 0.5 µM (≈ 4.4 µg/mL); in experiment [4] it was 15 ± 0.5 µM (≈ 4.4 µg/mL); in experiment [5] it was 22.5 ± 2.5 µM (≈ 6.6 µg/mL). Besides, the MIC against K. pneumoniae ATCC 4352 is > 250 µM; in experiment [6] it was 12.5 ± 2.5 µM (≈ 3.66 µg/mL). Moreover, the “susceptibility in agar overlay TTC assay” value with K. pneumoniae is recorded as “weakly susceptible”.
For the molecule `O=C(/C=C/c1c(Cl)ccc(Cl)c1Cl)c1cccc(O)c1` [Compound 4Bo, 3′-hydroxy-2,3,6-trichlorochalcone], the “inhibition of S. aureus at the 12.5 μM level” value in the experiment with S. aureus ATCC 10390 [2] (12.5 μM, macroarray stock solutions diluted four fold) is “complete inhibition”. For the same molecule, the MIC in the experiment with S. aureus ATCC 10390 [2] (setting [8]) is 6.25 to 12.5 µM (≈ 2.05 to 4.09 µg/mL); with S. aureus ATCC 10390 [2] (setting [9]), < 12.5 µM; in the experiment on S. aureus ATCC 10390 [3] (setting [10]), 6.5 ± 0.5 µM (≈ 2.13 µg/mL); in the experiment with S. aureus ATCC 10390 [3] (setting [11]), 10 ± 1 µM (≈ 3.28 µg/mL); in [4] it was 10 ± 1 µM (≈ 3.28 µg/mL); in experiment [5], 8.8 ± 1.2 µM (≈ 2.88 µg/mL). For the same molecule, the MIC was > 250 µM against K. pneumoniae ATCC 4352 and 12.5 ± 2.5 µM (≈ 4.09 µg/mL) in [6]. Besides, in the experiment on K. pneumoniae, the “susceptibility in agar overlay TTC assay” value was “weakly susceptible”.
As to `O=C(/C=C/c1cccc(Br)c1)c1cccc(O)c1` [Compound 4Be, 3-bromo-3′-hydroxychalcone], the minimal inhibitory concentration (MIC) in the experiment with S. aureus ATCC 10390 [2] (setting [8]) is 25 to 50 µM (≈ 7.58 to 15.2 µg/mL); in the experiment on S. aureus ATCC 10390 [2] (setting [9]), 25 to 50 µM (≈ 7.58 to 15.2 µg/mL); with S. aureus ATCC 10390 [3] (setting [10]) it was 24 ± 2 µM (≈ 7.28 µg/mL); with S. aureus ATCC 10390 [3] (setting [11]), 21 ± 1 µM (≈ 6.37 µg/mL); in experiment [4], 20 ± 1 µM (≈ 6.06 µg/mL); in experiment [5], 22.5 ± 2.5 µM (≈ 6.82 µg/mL). The minimum inhibitory concentration (MIC) came to 40 ± 10 µM (≈ 12.1 µg/mL) in the experiment with K. pneumoniae ATCC 4352 and 22.5 ± 2.5 µM (≈ 6.82 µg/mL) in experiment [6]. In addition, in the experiment with K. pneumoniae, the “susceptibility in agar overlay TTC assay” value is reported as “weakly susceptible”.
With `COc1cccc(OC)c1C(=O)N[C@@H]1C(=O)N2[C@@H]1SC(C)(C)[C@@H]2C(=O)O` [methicillin, reference compound], the Zone of inhibition in the experiment with S. aureus ATCC 10390 [7] is 39 mm.
